Assay results as given in ChEMBL document CHEMBL3352519, “Discovery of a novel pyrazole series of group X secreted phospholipase A2 inhibitor (sPLA2X) via fragment based virtual screening” (Bioorg Med Chem Lett, 2014).
pIC50: −log10 of the molar value.

How the values were obtained:
[1] = biological target: T1, Group 10 secretory phospholipase A2 (Homo sapiens, UniProt O15496); experiment: Inhibition of human sPLA2X using 1,2-bis(heptanoylthio) glycerophosphocholine substrate incubated for 30 mins
T1 sequence (O15496 whole entry): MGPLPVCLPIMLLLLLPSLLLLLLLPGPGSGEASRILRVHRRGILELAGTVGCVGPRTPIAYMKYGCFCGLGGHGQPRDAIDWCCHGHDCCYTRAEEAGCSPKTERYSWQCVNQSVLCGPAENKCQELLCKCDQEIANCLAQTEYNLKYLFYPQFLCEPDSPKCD

[2] = biological target: T2, Group 10 secretory phospholipase A2 (Homo sapiens) (UniProt O15496); experiment: (§1) Binding affinity to sPLA2X (unknown origin) by NMR spectroscopy based displacement assay; conditions: concentration not given here
T2 sequence (whole entry): T1 sequence (O15496 whole entry)

[3] = biological target: T1, Group 10 secretory phospholipase A2; experiment: as §1
[4] = biological target: T1, Group 10 secretory phospholipase A2; experiment: Binding affinity to sPLA2X (unknown origin)

| pIC50 [1] | Compound | other results |
| --- | --- | --- |
| 5.56 | Cc1ccccc1-c1cc(C(N)=O)n[nH]1 |  |
| 6.07 | Cc1sc2ccccc2c1-c1cc(C(N)=O)nn1C |  |
| 6.76 | Cc1sc2ccccc2c1-c1cc(C(N)=O)n[nH]1 |  |
| 6.07 | Cc1cc(-c2cc(C(N)=O)nn2C)c(C)s1 |  |
| 5.03 | NC(=O)c1cc(-c2ccccc2Cl)[nH]n1 |  |
| > 7.29 | Cc1sc(C(C)C)cc1-c1cc(C(N)=O)n[nH]1 |  |
|  | O=C(O)c1csc(-c2ccc3c(c2)CCO3)n1 | inhibition [2]: 80%; pIC50 [3]: 4.15 |
| 6.20 | Cc1sccc1-c1cc(C(N)=O)n[nH]1 |  |
| 5.92 | Cc1sc(-c2ccccc2)cc1-c1cc(C(N)=O)nn1C |  |
| 6.46 | Cc1sc(-c2ccccc2)cc1-c1cc(C(N)=O)n[nH]1 |  |
| 6.50 | Cc1cc(-c2cc(C(N)=O)n[nH]2)c(C)s1 | inhibition [2]: 57%; pIC50 [3]: 4.70 |
|  | COc1ccc2c(C(O)C(N)=O)c(C)n(Cc3ccccc3)c2c1 (stereo not given) | pIC50 [4]: 3.60 |
| 6.40 | NC(=O)c1cc(-c2cc(Cl)sc2Cl)[nH]n1 |  |
|  | O=C(O)c1ccc(-n2ncc3ccccc3c2=O)cc1 | inhibition [2]: 76%; pIC50 [3]: 4.30 |
|  | Oc1nc(-c2ccccc2)c(-c2ccccc2)[nH]1 | inhibition [2]: 88%; pIC50 [3]: 4.35 |
